Experimental data published in US10322118B2, “Compounds and methods for inhibiting Cif virulence factor” (priority 2012, dated 2019).
Where a name gives a salt, the structure may show the parent alone.

Columns and labels:
[1] = target: T1, Cif (Pseudomonas aeruginosa (strain UCBPP-PA14), UniProt A0A0H2ZD27); assay: Primary high throughput screen with fluorogenic substrate CMNGC; assay type: biochemical; settings: primary screen; test compounds at 10 μM, 1 μM Cif, 25 μM CMNGC, 60 minutes;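 note: fluorescence of 200 µL reactions in 96-well plates read on a plate reader, inhibitor at tenfold molar excess over Cif enzyme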
Experimental: All high throughput screening assays were performed using 96-well plates, a 200 μL reaction volume, and a fluorescent plate reader. […] The fluorescent signal was measured after allowing the enzyme reaction to proceed for 60 minutes.
A library of 1600 FDA-approved compounds was screened for Cif inhibitory activity.
The screen was performed with only a 10-fold stoichiometric excess of inhibitor over Cif enzyme.

[2] = target: T1, Cif; assay: Secondary screen (sextuplicate) with fluorogenic substrate CMNGC; assay type: biochemical; settings: for % Inhibition, Mean ± SD / % Inhibition, plate 1 / % Inhibition, plate 2 / % Inhibition, plate 3 / % Inhibition, plate 4 / % Inhibition, plate 5 / % Inhibition, plate 6: secondary screen, 10 μM; for % Inhibition, Mean ± SD: mean of six plates; for % Inhibition, plate 1: plate number 1; for % Inhibition, plate 2: plate number 2; for % Inhibition, plate 3: plate number 3; for % Inhibition, plate 4: plate number 4; for % Inhibition, plate 5: plate number 5; for % Inhibition, plate 6: plate number 6;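 for all read-outs here: purified enzyme assay in 96-well plates, 200 µL volume, fluorescence recorded each minute across a 60 min reaction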
Experimental: All high throughput screening assays were performed using 96-well plates, a 200 μL reaction volume, and a fluorescent plate reader. […] The fluorescent signal was measured after allowing the enzyme reaction to proceed for 60 minutes. The secondary screen was performed using the same conditions as the primary screen, except that fluorescent readings were taken every minute for the 60-minute reaction.
Subsequently, the filtered primary hits were retested to validate the observed inhibitory effect.

[3] = read-out: % Inhibition, Mean ± SD
[4] = read-out: % Inhibition, plate 1
[5] = read-out: % Inhibition, plate 2
[6] = read-out: % Inhibition, plate 3
[7] = read-out: % Inhibition, plate 4
[8] = read-out: % Inhibition, plate 5
[9] = read-out: % Inhibition, plate 6

T1 sequence (A0A0H2ZD27 25-319 limits assumed): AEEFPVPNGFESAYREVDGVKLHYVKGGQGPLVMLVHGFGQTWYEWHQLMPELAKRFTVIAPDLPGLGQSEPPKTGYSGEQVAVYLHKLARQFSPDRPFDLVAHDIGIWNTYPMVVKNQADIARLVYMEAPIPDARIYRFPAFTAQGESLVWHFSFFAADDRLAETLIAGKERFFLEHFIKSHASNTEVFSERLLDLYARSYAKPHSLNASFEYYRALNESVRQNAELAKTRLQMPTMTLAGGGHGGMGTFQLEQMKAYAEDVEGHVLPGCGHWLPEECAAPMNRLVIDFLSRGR

## C[C@H]1O[C@H](O[C@H]2[C@H](O)[C@@H](O)[C@@H](O[C@H]3[C@H](O)[C@@H](O)C(O)O[C@@H]3CO)O[C@@H]2CO)[C@H](O)[C@@H](O)[C@@H]1N[C@H]1C=C(CO)[C@@H](O)[C@H](O)[C@H]1O (stereo partly shown) [Acarbose]
[1]
  inhibition at 10 µM: 47%

## CC(=O)[C@@]12O[C@](C)(c3ccccc3)O[C@@H]1C[C@H]1[C@@H]3CCC4=CC(=O)CC[C@]4(C)[C@H]3CC[C@@]12C [Algestone acetophenide]
[1]
  % Inhibition: 38%
[2]
  % Inhibition, Mean ± SD: −3 ± 5%
  % Inhibition, plate 1: −5%
  % Inhibition, plate 2: −2%
  % Inhibition, plate 3: 0%
  % Inhibition, plate 4: −2%
  % Inhibition, plate 5: 3%
  % Inhibition, plate 6: −10%

## O=C(CCCN1CCN(c2ccccn2)CC1)c1ccc(F)cc1 [Azaperone]
[1]
  inhibition at 10 µM: 79%

## CN1CCCC(n2nc(Cc3ccc(Cl)cc3)c3ccccc3c2=O)CC1 (stereo not shown) [Azelastine hydrochloride]
[1]
  inhibition at 10 µM: 48%
[2]; [3]
  inhibition at 10 µM: 34 ± 4%
[2]; [4]
  inhibition at 10 µM: 30%
[2]; [5]
  inhibition at 10 µM: 31%
[2]; [6]
  inhibition at 10 µM: 33%
[2]; [7]
  inhibition at 10 µM: 34%
[2]; [8]
  inhibition at 10 µM: 42%
[2]; [9]
  inhibition at 10 µM: 30%

## C[N+](C)(C)CC(=O)O [Betaine hydrochloride]
[1]
  inhibition at 10 µM: 33%
[2]; [3]
  inhibition at 10 µM: 13 ± 6%
[2]; [4]
  inhibition at 10 µM: 6%
[2]; [5]
  inhibition at 10 µM: 10%
[2]; [6]
  inhibition at 10 µM: 9%
[2]; [7]
  inhibition at 10 µM: 17%
[2]; [8]
  inhibition at 10 µM: 20%
[2]; [9]
  inhibition at 10 µM: 18%

## O=C1CC2(CCCC2)CC(=O)N1CCCCN1CCN(c2ncccn2)CC1 [Buspirone hydrochloride]
[1]
  inhibition at 10 µM: 33%
[2]; [3]
  inhibition at 10 µM: -3 ± 4%
[2]; [4]
  inhibition at 10 µM: 0%
[2]; [5]
  inhibition at 10 µM: -3%
[2]; [6]
  inhibition at 10 µM: 0%
[2]; [7]
  inhibition at 10 µM: -1%
[2]; [8]
  inhibition at 10 µM: -2%
[2]; [9]
  inhibition at 10 µM: -11%

## C[C@]12CCC(=O)C=C1C=C[C@@H]1[C@@H]2CC[C@@]2(C)[C@H]1CC[C@@]21CCC(=O)O1 [Canrenone]
[1]
  inhibition at 10 µM: 36%
[2]; [3]
  inhibition at 10 µM: 24 ± 5%
[2]; [4]
  inhibition at 10 µM: 16%
[2]; [5]
  inhibition at 10 µM: 27%
[2]; [6]
  inhibition at 10 µM: 20%
[2]; [7]
  inhibition at 10 µM: 24%
[2]; [8]
  inhibition at 10 µM: 28%
[2]; [9]
  inhibition at 10 µM: 27%

## CO[C@@]1(NC(=O)Cc2cccs2)C(=O)N2C(C(=O)O)=C(COC(N)=O)CS[C@@H]21 [Cefoxitin sodium]
[1]
  inhibition at 10 µM: 32%
[2]; [3]
  inhibition at 10 µM: 10 ± 8%
[2]; [4]
  inhibition at 10 µM: -3%
[2]; [5]
  inhibition at 10 µM: 16%
[2]; [6]
  inhibition at 10 µM: 5%
[2]; [7]
  inhibition at 10 µM: 9%
[2]; [8]
  inhibition at 10 µM: 19%
[2]; [9]
  inhibition at 10 µM: 14%

## CCCCCCCCCCCCCCCC[N+](C)(C)C.[Br-] [Cetrimonium bromide]
[1]
  % Inhibition: 44%
[2]
  % Inhibition, Mean ± SD: 2 ± 4%
  % Inhibition, plate 1: 1%
  % Inhibition, plate 2: −1%
  % Inhibition, plate 3: −4%
  % Inhibition, plate 4: 3%
  % Inhibition, plate 5: 8%
  % Inhibition, plate 6: 2%

## Nc1nc(Cl)nc2c1ncn2[C@@H]1O[C@H](CO)[C@@H](O)[C@@H]1F [Clofarabine]
[1]
  inhibition at 10 µM: 43%
[2]; [3]
  inhibition at 10 µM: 12 ± 5%
[2]; [4]
  inhibition at 10 µM: 7%
[2]; [5]
  inhibition at 10 µM: 8%
[2]; [6]
  inhibition at 10 µM: 7%
[2]; [7]
  inhibition at 10 µM: 13%
[2]; [8]
  inhibition at 10 µM: 20%
[2]; [9]
  inhibition at 10 µM: 16%

## CN(C)CCCN1c2ccccc2CCc2ccc(Cl)cc21 [Clomipramine hydrochloride]
[1]
  inhibition at 10 µM: 51%
[2]; [3]
  inhibition at 10 µM: 5 ± 4%
[2]; [4]
  inhibition at 10 µM: 0%
[2]; [5]
  inhibition at 10 µM: 3%
[2]; [6]
  inhibition at 10 µM: 9%
[2]; [7]
  inhibition at 10 µM: 3%
[2]; [8]
  inhibition at 10 µM: 9%
[2]; [9]
  inhibition at 10 µM: 7%

## C[C@@H]1C[C@H]2[C@@H]3CCC4=CC(=O)C=C[C@]4(C)[C@@]3(F)[C@@H](O)C[C@]2(C)[C@H]1C(=O)CO [Desoxymetasone]
[1]
  % Inhibition: 66%
[2]
  % Inhibition, Mean ± SD: 39 ± 4%
  % Inhibition, plate 1: 34%
  % Inhibition, plate 2: 42%
  % Inhibition, plate 3: 34%
  % Inhibition, plate 4: 40%
  % Inhibition, plate 5: 42%
  % Inhibition, plate 6: 41%

## COC(=O)/C=C/C(=O)OC [Dimethyl fumarate]
[1]
  inhibition at 10 µM: 36%
[2]; [3]
  inhibition at 10 µM: 5 ± 4%
[2]; [4]
  inhibition at 10 µM: 3%
[2]; [5]
  inhibition at 10 µM: -2%
[2]; [6]
  inhibition at 10 µM: 8%
[2]; [7]
  inhibition at 10 µM: 7%
[2]; [8]
  inhibition at 10 µM: 9%
[2]; [9]
  inhibition at 10 µM: 6%

## CC1=NN(c2ccccc2)C(=O)C1 [Edaravone]
[1]
  inhibition at 10 µM: 43%
[2]; [3]
  inhibition at 10 µM: 16 ± 7%
[2]; [4]
  inhibition at 10 µM: 21%
[2]; [5]
  inhibition at 10 µM: 13%
[2]; [6]
  inhibition at 10 µM: 13%
[2]; [7]
  inhibition at 10 µM: 26%
[2]; [8]
  inhibition at 10 µM: 19%
[2]; [9]
  inhibition at 10 µM: 6%

## CCOC(=O)[C@H](CCc1ccccc1)N[C@@H](C)C(=O)N1CCC[C@H]1C(=O)O [Enalapril maleate]
[1]
  inhibition at 10 µM: 31%
[2]; [3]
  inhibition at 10 µM: 4 ± 8%
[2]; [4]
  inhibition at 10 µM: -6%
[2]; [5]
  inhibition at 10 µM: 13%
[2]; [6]
  inhibition at 10 µM: 1%
[2]; [7]
  inhibition at 10 µM: 9%
[2]; [8]
  inhibition at 10 µM: 10%
[2]; [9]
  inhibition at 10 µM: -3%
